Reference: patent US20240360137A1 (Novartis AG, priority 2023, published 2024)

Key:
Test in all cases: CDKi biochemical assay (TR-FRET, phosphorylation of S780 on RB1 peptide)
[1] = molecular target: CDK2/CyclinE1 (Homo sapiens, UniProt P24941); details: CDK2/CyclinE1 100 pM, 1 mM ATP, 60 min at 25° C.
Description: (§1) Biochemical assays measured the inhibitory effects of compounds in this disclosure on the enzymatic activity of CDK enzyme in complex with Cyclin protein partner by phosphorylation of Ser-780 (S780) on retinoblastoma protein peptide (RB1) in the presence of 1 mM adenosime-5-triphosphate (ATP) and varying concentration of test compound in 20 mM 2-[4-(2-hydroxyethyl)paperazin-1-yl] ethanesulfonic acid (HEPES), pH 7.5, 10 mM MgCl2, 1 mM dithiothreitol (DTT), 0.01% bovine serum albumin (BSA), 0.005% Tween 20. Total Reaction volume of 10 μL proceeded for 60 minutes at room temperature (25° C.) and were quenched with 5 μL of 200 mM 2′,2″,2′″-(Ethane-1,2-diyldinitrilo)tetraacetic acid (EDTA) pH 8.0 before addition of 5 μL detection solution containing 100 nM fluorophore conjugate streptavidin allophycocyanin (SA-APC), 2 nM Europium labelled Anti-p-RB(S780)-K (Perkin Elmer, 64CUSKAY), 50 mM HEPES, pH 7.5, 400 mM potassium fluoride (KF), 0.1% BSA, and 0.01% Tween-20. Phosphorylation of S780 on RB1 peptide (His-MBP-RB1[773-924]-SEQ ID NO. 9) was detected by TR-FRET after 3 hour incubation with detection solution. Percent phosphorylation activity was plotted against log concentration of compound to generate an apparent ICSO. The following CDK enzyme in complex with different cyclin proteins and protein peptide substrate were used in these assays: • CDK1/CyclinB1, Avi-tag, 10 pM used in the assay • CDK2/CyclinE1, Avi-tag, 100 pM used in the assay • CDK4/cyclinD1, Avi-tag, 20 pM used in the assay • CDK6/cyclinD3, Avi-tag, 10 pM used in the assay • His-MBP-RB1[773-924], Avi-tag, 200 nM used in the assay
(§2) The avi-tag is a C-terminal fusion on the CDK1/2/4/6 sequence in each of these two-protein complexes. The known avi-tag sequence, […] (SEQ ID NO. 10), is a substrate for E. coli biotin ligase BirA, which covalently attaches a biotin molecule to the e-amino group of the lysine in that sequence. The avi-tag is attached with an 8 amino-acid linker sequence GGSGGGGS (SEQ ID NO. 11), resulting in the full C-terminal fusion
(§3) Recombinant proteins were generated as N-terminal fusions of 9× His tag—E. coli Maltose Binding Protein (MBP), with or without a C-terminal Avi-tag.^1 CDK2 and His-MBP-RB1[773-924]-c-avi were expressed in E. coli while the remainder were expressed in Sf21 insect cells. Genes were synthesized commercially (GeneArt and Twist Bioscience) using codon frequencies appropriate to the respective organisms and proprietary codon optimization strategies, and inserted into pET 24 (E. coli) or pDEST8 (insect) vectors already containing the 9× His-MBP tag using standard methods of PCR and Gibson Assembly.^2 E. coli expression was performed by auto-induction overnight at 18 or 21 C. For insect cell expression, bacmids and viruses were created,^3 then used to synchronously infect Sf21 insect cells with harvest at 40-48 hrs., per standard protocols.^4
(§4) For CDK2/Cyclin E and CDK1/Cyclin B, the CDK and Cyclin proteins were expressed separately, lysed by sonication and clarified by centrifugation. The fusion proteins were each separately purified by immobilized metal ion affinity chromatography (IMAC) (5 mL HisTrap, Cytiva) and Superdex 200 26/60 (Cytiva) size-exclusion and complexed in vitro (1-3 hrs incubation at room temperature) prior to tag cleavage by recombinant his-tagged Tobacco Etch Virus protease or his-tagged Human rhinovirus 3C protease, as appropriate. The cleaved complex is further purified by Superdex 75 26/60 (Cytiva) size-exclusion followed by reverse-IMAC, in which the complex is in the column flow-through and residual His-MBP and his-tagged proteases are retained. The final complex is concentrated as desired by centrifugal concentration (Amicon Ultra 10,000 Da MWCO 15 mL concentrators, Millipore).
For E. coli expressed CDK2 and His-MBP-RB1[773-924]-c-avi, the proteins were biotinylated in vitro after the first IMAC step.^1
(§5) For the is-MBP-RB1[773-924]-c-avi, the protein was lysed by sonication and clarified by centrifugation. […]

[2] = molecular target: CDK1/CyclinB1 (Homo sapiens, UniProt P06493); details: CDK1/CyclinB1 10 pM, 1 mM ATP, 60 min at 25° C.
Description: as §1, §2, §3, §4, §5

[3] = molecular target: CDK4/cyclinD1 (Homo sapiens, UniProt P11802); details: CDK4/cyclinD1 20 pM, 1 mM ATP, 60 min at 25° C.
Description: as §1, §2, §3
(§6) For CDK4/Cyclin D1 and CDK6/Cyclin D3, the complexes were expressed by simultaneous co-infection of insect cells by three separate viruses including one expressing untagged E. coli BirA. The expression media is supplemented with 50 uM d-biotin. The resulting protein complexes purified similarly. After lysis and clarification, the complex is purified by IMAC, Superdex 200 26/60 size exclusion, tag cleavage by human rhinovirus 3C protease, Superdex 75 26/60 size exclusion and reverse IMAC. BirA is typically not retained on the first IMAC, and excess CDK or Cyclin monomer is separated on the Superdex 200 size exclusion. Cleaved His-MBP and remaining monomer are removed by the Superdex 75 size exclusion and the reverse IMAC step. Final concentration by centrifugal concentrators as described above.
as §5

[4] = molecular target: CDK6/cyclinD3 (Homo sapiens, UniProt Q00534); details: CDK6/cyclinD3 10 pM, 1 mM ATP, 60 min at 25° C.
Description: as §1, §2, §3, §6, §5

Row | Compound | IC50 [1] [µM] | IC50 [2] [µM] | IC50 [3] [µM] | IC50 [4] [µM]
1 | O=C1N([C@@H]2CCC[C@@H](O)C2)c2nc(Nc3c[nH]nc3-c3cccnc3)ncc2C12CC2 [Example 61, 7′-((1R,3R)-3-hydroxycyclohexyl)-2′-((3-(pyridin-3-yl)-1H-pyrazol-4-yl)amino)spiro[cyclopropane-1,5′-pyrrolo[2,3-d]pyrimidin]-6′(7′H)-one] | 0.046 | ≥ 10 | 8.65 | 9.19
2 | Cn1cc(-c2n[nH]cc2Nc2ncc3c(n2)N([C@@H]2CCC[C@@H](O)C2)C(=O)C32CC2)cn1 [Example 80, 7′-((1R,3R)-3-hydroxycyclohexyl)-2′-((1′-methyl-1H,1′H-[3,4′-bipyrazol]-4-yl)amino)spiro[cyclopropane-1,5′-pyrrolo[2,3-d]pyrimidin]-6′(7′H)-one] | 0.029 | 6.01 | 9.3 | ≥ 10
3 | O=C1N([C@@H]2CCCC[C@@H](O)C2)c2nc(Nc3c[nH]nc3Cl)ncc2C12CC2 [Example 19, 2′-((3-chloro-1H-pyrazol-4-yl)amino)-7′-((1R,3R)-3-hydroxycycloheptyl)spiro[cyclopropane-1,5′-pyrrolo[2,3-d]pyrimidin]-6′(7′H)-one] | 0.044 | 4.12 | 7.58 | 9.16
4 | Cn1ncc(-c2n[nH]cc2Nc2ncc3c(n2)N([C@@H]2CCC[C@@H](O)C2)C(=O)C32CC2)c1Cl [Example 57, 2′-((5′-chloro-1′-methyl-1H,1′H-[3,4′-bipyrazol]-4-yl)amino)-7-((1R,3R)-3-hydroxycyclohexyl)spiro[cyclopropane-1,5′-pyrrolo[2,3-d]pyrimidin]-6′(7′H)-one] | 0.015 | 2.04 | 7.9 | ≥ 10
5 | COCc1ncc(Nc2ncc3c(n2)N([C@@H]2CCC[C@@H](O)C2)C(=O)C32CC2)[nH]1 [Example 11, 7′-((1R,3R)-3-hydroxycyclohexyl)-2′-((2-(methoxymethyl)-1H-imidazol-5-yl)amino)spiro[cyclopropane-1,5′-pyrrolo[2,3-d]pyrimidin]-6′(7′H)-one] | 1.35 | ≥ 10 | 5.73 | 9.35
6 | CO[C@H]1C[C@H](Oc2n[nH]cc2Nc2ncc3c(n2)N([C@@H]2CCC[C@@H](O)C2)C(=O)C32CC2)C1 [Example 82, 7′-((1R,3R)-3-hydroxycyclohexyl)-2′-((3-((1r,3R)-3-methoxycyclobutoxy)-1H-pyrazol-4-yl)amino)spiro[cyclopropane-1,5′-pyrrolo[2,3-d]pyrimidin]-6′(7′H)-one] | 0.026 | 2.53 | ≥ 10 | ≥ 10
7 | COCc1n[nH]cc1Nc1ncc2c(n1)N([C@@H]1CCC[C@@H](O)C1)C(=O)C21CC1 [Example 21, 7′-((1R,3R)-3-hydroxycyclohexyl)-2′-((3-(methoxymethyl)-1H-pyrazol-4-yl)amino)spiro[cyclopropane-1,5′-pyrrolo[2,3-d]pyrimidin]-6′(7′H)-one] | 0.017 | 2.5 | 2.26 | 4.46
8 | Cc1n[nH]cc1Nc1ncc2c(n1)N([C@@H]1CCC[C@@H](O)C1)C(=O)C21CC1 [Example 2, 7′-((1R,3R)-3-hydroxycyclohexyl)-2′-((3-methyl-1H-pyrazol-4-yl)amino)spiro[cyclopropane-1,5′-pyrrolo[2,3-d]pyrimidin]-6′(7′H)-one] | 0.018 | 1.21 | 4.52 | 6.68
9 | CC(=O)N1CC2(CC(COc3n[nH]cc3Nc3ncc4c(n3)N([C@@H]3CCC[C@@H](O)C3)C(=O)C43CC3)C2)C1 [Example 53, 2′-((3-((2-acetyl-2-azaspiro[3.3]heptan-6-yl)methoxy)-1H-pyrazol-4-yl)amino)-7′-((1R,3R)-3-hydroxycyclohexyl)spiro[cyclopropane-1,5′-pyrrolo[2,3-d]pyrimidin]-6′(7′H)-one] | 0.186 | ≥ 10 | ≥ 10 | ≥ 10
10 | N#CC1(COc2n[nH]cc2Nc2ncc3c(n2)N([C@@H]2CCC[C@@H](O)C2)C(=O)C32CC2)CC1 [Example 67, 1-(((4-((7′-((1R,3R)-3-hydroxycyclohexyl)-6′-oxo-6′,7′-dihydrospiro[cyclopropane-1,5′-pyrrolo[2,3-d]pyrimidin]-2′-yl)amino)-1H-pyrazol-3-yl)oxy)methyl)cyclopropane-1-carbonitrile] | 0.023 | 4.13 | 6.91 | ≥ 10
11 | O=C1N([C@@H]2CCC[C@@H](O)C2)c2nc(Nc3c[nH]nc3-c3cnn4ccccc34)ncc2C12CC2 [Example 28, 7′-((1R,3R)-3-hydroxycyclohexyl)-2′-((3-(pyrazolo[1,5-a]pyridin-3-yl)-1H-pyrazol-4-yl)amino)spiro[cyclopropane-1,5′-pyrrolo[2,3-d]pyrimidin]-6′(7′H)-one] | 0.011 | 1.18 | 2.12 | 2.54
12 | O=C1N([C@@H]2CCC[C@@H](O)C2)c2nc(Nc3c[nH]nc3C#Cc3cccnc3)ncc2C12CC2 [Example 36, 7′-((1R,3R)-3-hydroxycyclohexyl)-2′-((3-(pyridin-3-ylethynyl)-1H-pyrazol-4-yl)amino)spiro[cyclopropane-1,5′-pyrrolo[2,3-d]pyrimidin]-6′(7′H)-one] | 0.039 | 4.99 | ≥ 10 | ≥ 10
13 | O=C1N([C@@H]2CCC[C@@H](O)C2)c2nc(Nc3c[nH]nc3OCC3(F)COC3)ncc2C12CC2 [Example 48, 2′-((3-((3-fluorooxetan-3-yl)methoxy)-1H-pyrazol-4-yl)amino)-7′-((1R,3R)-3-hydroxycyclohexyl)spiro[cyclopropane-1,5′-pyrrolo[2,3-d]pyrimidin]-6′(7′H)-one] | 0.022 | 3.25 | 1.54 | ≥ 10
14 | O=C1N([C@@H]2CCC[C@@H](O)C2)c2nc(Nc3c[nH]nc3O)ncc2C12CC2 [Example 77, 2′-((3-hydroxy-1H-pyrazol-4-yl)amino)-7′-((1R,3R)-3-hydroxycyclohexyl)spiro[cyclopropane-1,5′-pyrrolo[2,3-d]pyrimidin]-6′(7′H)-one] | 0.121 | 5.82 | 1.48 | 5.26
